Measured values published in publication PMC8006142 (Journal of Medicinal Chemistry, 2021).

Columns and labels:
AM1 receptor = molecular target: T1, AM1 receptor (Homo sapiens, UniProt O60895+Q16602); assay: TR-FRET cAMP accumulation, AM1 receptor cross-screen; assay type: cell-based; settings: Table 2; read-out: pIC50 AM1 (converted)
T1 construct: expressed in transfected cells; host or cells: GPCR/RAMP-overexpressing cells; the AM1 line itself is not described
Method: (§1) The ability of the compounds to inhibit cAMP production induced by an EC50 concentration of the maximum agonist activation (information previously published[34]) in GPCR/RAMP-overexpressing cells (i.e., AM2, CGRP cells) was evaluated using cAMP accumulation assays. Each compound was tested at 8 full-log concentrations (10^–11–10^–5 M) including a negative control (blank). The total cAMP was measured using the TR-FRET LANCE cAMP detection kit (PerkinElmer, AD0264), as described previously.[34] Briefly, frozen cells ([…]) were thawed and prepared in warm stimulation buffer (1× HBSS, 5 mM N-(2-hydroxyethyl)piperazine-N′-ethanesulfonic acid (HEPES), 0.5 mM IBMX, and 0.1% bovine serum albumin (BSA)). Alexa Fluor conjugated anti-cAMP (1:100 concentration) was then added to the cell suspension, and cells were plated (2500 cells, 6 μL) in a 384-well white opaque microtiter plate (OptiPlates, PerkinElmer, 6007299). […] Subsequently, a 12 μL detection mix (Europium-Chelate streptavidin/biotinylated cAMP) was added to stop the reaction and induce cell lysis. TR-FRET was detected after an hour of incubation by an EnSight multimode Plate reader (PerkinElmer) at 320/340 nm excitation and 615/665 nm emission. Data were normalized to agonist only and blank (stimulation buffer only) wells as 0 and 100% cAMP inhibition, respectively.
The final DMSO concentration was below 0.5%, and this was kept consistent in all of the wells, including agonist alone and blank. The same methodology including the number of cells was used for all cell lines. […] No further constraints in any parameters of the curves were used.

AM2 receptor = AM2 receptor (Homo sapiens, UniProt O60896+Q16602); assay: TR-FRET cAMP accumulation, inhibition of agonist-induced cAMP in AM2 receptor-overexpressing cells; assay type: cell-based; settings: supplementary CSV; read-out: pIC50 AM2R (converted)
Method: as §1, with “respectively. […]” for “respectively.”

CGRP receptor = CGRP receptor (Homo sapiens, UniProt O60894+Q16602); assay: TR-FRET cAMP accumulation, inhibition of agonist-induced cAMP in CGRP receptor-overexpressing cells; assay type: cell-based; settings: supplementary CSV; read-out: pIC50 CGRPR (converted)
Method: as §1, with “respectively. […]” for “respectively.”

MDA-MB-231 cells = assay: Real-Time-Glo MT viability assay; assay type: cell-based, human; settings: 10 μM, daily treatment, after 3 days, versus vehicle-treated controls
Method: Cell viability in human breast cancer cells (MDA-MB-231) was quantified using Real-Time-Glo MT Cell Viability Assay (Promega, G9712) as previously described.[34] Cells (2000 cells) were seeded into 96-well white clear-bottom plates (Corning, 3903) in full serum media overnight before washing and changing to suboptimal media (RPMI + 5% FBS + 1% P/S) containing Real-Time-Glo reagents according to the Promega protocol. A baseline luminescence read (prior to treatment) was taken using an EnSight Multimode Plate Reader (PerkinElmer) after an hour of incubation at 37 °C. Cells were then treated with compounds or vehicle control (PBS + 0.05% DMSO) daily. Results were normalized to vehicle-treated controls as 100% viable (Graphpad Prism 7 and 8).

MDA-MB-231 tumor = assay: Subcutaneous MDA-MB-231 xenograft in BALB/c nude mice; assay type: in vivo
Method: The study was performed using 6–7 week old BALB/c nude female mice, with a weight range of 15–20 g. Animals were provided by Envigo Corporation (Cambridgeshire, U.K.) or Charles River Laboratories (Massachusetts) depending on availability. Each experiment started with 10 mice (experimental units) in each experimental/control group. Subsequent analysis (tumor growth and histology) was only performed in animals where tumors had established and were palpable within 3 days of implantation. This was in accordance with the power calculation performed to ensure robust statistical analysis by the University of Sheffield Statistical Service. The animals were housed in individually ventilated cages (with the appropriate bedding and flooring conditions) in environmentally controlled conditions with a 12 h light/dark cycles at ∼26 °C. Mice had access to an adequate amount of water and a 2018 Teklad Global 18% Protein Rodent Diet containing 1.01% calcium (Harlan Laboratories, U.K.). The day-to-day care of the animals was carried out by the technicians in the Biological Services (The University of Sheffield, U.K.). All scientific procedures on animals were carried under the U.K. Home Office Project Licenses (40/3499) and Procedure Individual Licenses.
Compounds were dissolved in DMSO (Sigma-Aldrich, D4540) and sonicated at 37 °C for 10 min. The appropriate volume of solvent (Kolliphor HS15 (1 part, grams), Kollisolv PEG E 400 (3 parts, mL), and PBS (6 parts, mL)) was then added to yield a 6% DMSO/94% solvent solution. These working stocks (8 mg/mL) were further sonicated at 37 °C for 10 min before storing at −20 °C. To make treatment aliquots, equal amounts of the working stock (or vehicle control) and solvent were mixed and sonicated at 37 °C for 10 min (4 mg/mL, equivalent to 20 mg/kg, 3% DMSO/97% solvent). Vehicle control and compounds were sonicated at 37 °C for 10 min prior to ip injections (200 μL per mouse).
Cells were prepared according to standard cell culture techniques. Cell pellets were resuspended in 50% PBS/50% Matrigel (Corning, 354234). Matrigel/PBS cell suspension, needles (25G), and syringes (1 mL) were kept on ice before and during tumor inoculation into mice. Cell suspension (100 μL, 5 × 10^6 cells) was injected subcutaneously into the left flank of 6–7 weeks old female immunodeficient nude athymic mice (BALB/c nude). Once the tumors became palpable (around 100 mm^3), mice were randomized into treatment groups. Mice were treated daily at the same time of the day with an ip injection of 20 mg/kg of compound or vehicle control (200 μL per mouse) until humane end point. […] Tumor size and mouse weights were measured twice a week. At the end of each study, the animals were euthanized following the appropriate procedures listed in the ASPA Act 1986. Vital organs and tumors were stored in 10% neutral-buffered formalin for further histological analysis. The primary experimental outcome was tumor volume. The percentage tumor volume was calculated by normalizing measured tumor volumes to the initial tumor volume prior to the start of treatment on day 5. Simple linear regression was done to compare the line of best fit between the growth curves. Blinding was not used for the in vivo studies.

CGRP = tested on: CGRP; design: method as in PMID 24900170, PMID 16161996; settings: cited from earlier work

T1 sequence (Q16602 23-461): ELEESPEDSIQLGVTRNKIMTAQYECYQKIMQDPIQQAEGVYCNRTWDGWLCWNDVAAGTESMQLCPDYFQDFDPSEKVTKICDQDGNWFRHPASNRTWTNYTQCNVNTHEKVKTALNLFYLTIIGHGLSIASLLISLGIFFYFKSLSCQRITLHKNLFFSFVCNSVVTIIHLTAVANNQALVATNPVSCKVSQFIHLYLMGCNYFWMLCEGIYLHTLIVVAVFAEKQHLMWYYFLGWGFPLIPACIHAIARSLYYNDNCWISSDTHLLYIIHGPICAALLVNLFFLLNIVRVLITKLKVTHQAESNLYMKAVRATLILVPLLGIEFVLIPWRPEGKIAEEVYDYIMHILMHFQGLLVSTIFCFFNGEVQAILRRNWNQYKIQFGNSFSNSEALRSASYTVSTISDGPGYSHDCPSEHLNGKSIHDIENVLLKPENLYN
T1 sequence (O60895 43-175): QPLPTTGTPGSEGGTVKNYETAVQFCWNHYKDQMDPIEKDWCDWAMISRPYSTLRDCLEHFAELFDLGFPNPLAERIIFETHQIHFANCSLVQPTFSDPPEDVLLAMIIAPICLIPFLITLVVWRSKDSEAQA
Sequence of CGRP receptor (Q16602 23-461): as the sequence (Q16602 23-461) above
Sequence of CGRP receptor (O60894 27-148): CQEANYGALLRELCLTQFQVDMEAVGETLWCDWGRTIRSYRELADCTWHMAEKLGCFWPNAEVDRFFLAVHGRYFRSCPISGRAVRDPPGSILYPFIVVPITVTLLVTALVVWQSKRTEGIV
Sequence of AM2 receptor (Q16602 23-461): as the sequence (Q16602 23-461) above
Sequence of AM2 receptor (O60896 24-148): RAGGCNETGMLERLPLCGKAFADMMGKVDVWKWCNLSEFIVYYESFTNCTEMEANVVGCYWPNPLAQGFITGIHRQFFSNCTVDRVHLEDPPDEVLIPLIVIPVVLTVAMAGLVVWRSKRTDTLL

SMILES | IC50 (AM1 receptor) [µM] | also measured
CC(N)c1ccccc1CN(CC(=O)Nc1ccc2c(c1)CC1(C2)C(=O)Nc2ncccc21)C(=O)C(C)(C)C (racemic) [(±)-29, N-(2-(1-Aminoethyl)benzyl)-N-(2-oxo-2-((2′-oxo-1,1′,2′,3-tetrahydrospiro[indene-2,3′-pyrrolo[2,3-b]pyridin]-5-yl)amino)ethyl)pivalamide] | > 10 | 
CC(C)(C)C(=O)N(CC(=O)Nc1ccc2c(c1)CC1(C2)C(=O)Nc2ncccc21)Cc1ccccc1CNCc1ncc[nH]1 (stereo not shown) [Compound 23, N-(2-((((1H-Imidazol-2-yl)methyl)amino)methyl)benzyl)-N-(2-oxo-2-((2′-oxo-1,1′,2′,3-tetrahydrospiro[indene-2,3′-pyrrolo[2,3-b]pyridine]-5-yl)amino)ethyl)pivalamide] |  | IC50 (AM2 receptor): 0.251 µM; IC50 (CGRP receptor): 0.00398 µM
CC(C)(C)C(=O)N(CC(=O)Nc1ccc2c(c1)CC1(C2)C(=O)Nc2ncccc21)Cc1ccccc1CNC1CC1 (stereo not shown) [Compound 26, N-(2-((Cyclopropylamino)methyl)benzyl)-N-(2-oxo-2-((2′-oxo-1,1′,2′,3-tetrahydrospiro[indene-2,3′-pyrrolo[2,3-b]pyridin]-5-yl)amino)ethyl)pivalamide] | 3.16 | 
CN1CCCC(CN(CC(=O)Nc2ccc3c(c2)CC2(C3)C(=O)Nc3ncccc32)C(=O)C(C)(C)C)C1 (racemic) [(±)-6, N-((1-Methylpiperidin-3-yl)methyl)-N-(2-oxo-2-((2′-oxo-1,1′,2′,3-tetrahydrospiro[indene-2,3′-pyrrolo[2,3-b]pyridin]-5-yl)amino)ethyl)pivalamide] | > 10 | 
CNCc1ccccc1CN(CC(=O)Nc1ccc2c(c1)CC1(C2)C(=O)Nc2ncccc21)C(=O)C(C)(C)C (stereo not shown) [Compound 25] | 2 | decrease of MDA-MB-231 viability (MDA-MB-231 cells): 55%; tumor growth rates (MDA-MB-231 tumor; 20 mg/kg ip daily, simple linear regression, p < 0.001): significantly reduced; adverse effects (MDA-MB-231 tumor; 20 mg/kg ip once daily): No adverse effects were observed; body weight compared with vehicle-treated mice (MDA-MB-231 tumor; 20 mg/kg ip once daily): did not differ significantly; tolerability (MDA-MB-231 tumor; 20 mg/kg ip once daily): well tolerated; decrease of breast cancer xenograft tumor growth (MDA-MB-231 tumor; 20 mg/kg ip once daily, 4 weeks after treatment, versus vehicle): 47%
CC(C)(C)C(=O)N(CC(=O)Nc1ccc2c(c1)CC1(C2)C(=O)Nc2ncccc21)Cc1ccccn1 (stereo not shown) [Compound 5, N-(2-Oxo-2-((2′-oxo-1,1′,2′,3-tetrahydrospiro[indene-2,3′-pyrrolo[2,3-b]pyridin]-5-yl)amino)ethyl)-N-(pyridin-2-ylmethyl)pivalamide] | 50.1 | 
O=C(CN1C(=O)C2(CCCC2)NC[C@H]1c1cc(F)cc(F)c1)Nc1ccc2c(c1)C[C@@]1(C2)C(=O)Nc2ncccc21 [MK-3207] |  | CGRP potency (CGRP): 0.00012 µM
CC(C)(C)C(=O)N(CC(=O)Nc1ccc2c(c1)CC1(C2)C(=O)Nc2ncccc21)Cc1nccs1 (stereo not shown) [Compound 8, N-(2-Oxo-2-((2′-oxo-1,1′,2′,3-tetrahydrospiro[indene-2,3′-pyrrolo[2,3-b]pyridin]-5-yl)amino)ethyl)-N-(thiazol-2-ylmethyl)pivalamide] | 25.1 | 
CC(C)(C)C(=O)N(CC(=O)Nc1ccc2c(c1)CC1(C2)C(=O)Nc2ncccc21)Cc1ccccc1CN (stereo not shown) [Compound 12, N-(2-(Aminomethyl)benzyl)-N-(2-oxo-2-((2′-oxo-1,1′,2′,3-tetrahydrospiro[indene-2,3′-pyrrolo[2,3-b]pyridin]-5-yl)amino)ethyl)pivalamide] | 7.94 | 
CC(C)(C)C(=O)N(CC(=O)Nc1ccc2c(c1)CC1(C2)C(=O)Nc2ncccc21)Cc1ccccc1CN1CCC1 (stereo not shown) [Compound 27, N-(2-(Azetidin-1-ylmethyl)benzyl)-N-(2-oxo-2-((2′-oxo-1,1′,2′,3-tetrahydrospiro[indene-2,3′-pyrrolo[2,3-b]pyridine]-5-yl)amino)ethyl)pivalamide] | 2 | 
CC(C)(C)C(=O)N(CC(=O)Nc1ccc2c(c1)CC1(C2)C(=O)Nc2ncccc21)Cc1ccccc1CO (stereo not shown) [Compound 13, N-(2-(Hydroxymethyl)benzyl)-N-(2-oxo-2-((2′-oxo-1,1′,2′,3-tetrahydrospiro[indene-2,3′-pyrrolo[2,3-b]pyridin]-5-yl)amino)ethyl)pivalamide] | 1.26 | 
CC(C)(C)C(=O)N(CC(=O)Nc1ccc2c(c1)CC1(C2)C(=O)Nc2ncccc21)Cc1ccccc1C(N)=O (stereo not shown) [Compound 15, 2-((N-(2-Oxo-2-((2′-oxo-1,1′,2′,3-tetrahydrospiro[indene-2,3′-pyrrolo[2,3-b]pyridin]-5-yl)amino)ethyl)pivalamido)methyl)benzamide] | 6.31 | 
